Data taken from patent US20160296538A1, “[…] RESPONSE BIOMARKER FOR TH-302 ANTI-CANCER THERAPY” (THRESHOLD PHARMACEUTICALS, INC., priority 2013, published 2016).
Entries after “also recorded” stand apart in the source; their conditions may differ.

How the values were obtained:
[1] = tested on: H460 xenograft tumor hypoxia (pimonidazole); experiment: Pimonidazole immunostaining of H460 tumors (hypoxic fraction); type: in vivo, nu/nu mice
Excerpt: (§1) Proliferating cells (as measured by Ki-67 immunostaining) were decreased as well; DNA damage (as measured by γH2AX immunostaining) and necrosis (as measured by hematoxylin and eosin, H&E, staining) were increased. There was regional co-localization of pimonidazole and CA-IX, but not co-localization of pimonidazole and two other putative endogenous hypoxia markers: Glut-1 or HIF-1α.
(§2) Three biomarker platforms were employed in this study: positron emission tomography (PET) imaging employing the tracer [18F]-HX4; immunohistochemistry of isolated tumor tissue employing antibodies directed against the exogenous hypoxia biomarker pimonidazole and the endogenous hypoxia biomarker carbonic anhydrase IX (CA-IX); and ELISA-based quantification of circulating plasma CA-IX.
(§3) [18F]-HX4 uptake was assessed by PET/CT imaging, and the tumor to muscle ratio (T/M) was determined. […] Blood was collected from the pre- and post-treated animals via retro-orbital venipuncture. Plasma CA-IX changed from baseline 165±13 to 104±9.3 pg/ml 72 hours after TH-302 dosing, a 37% reduction (p<0.05; n=10 per group). […] For tissue biomarker analysis, tumors were harvested 72 hours after TH-302 treatment, and tumor hypoxia was assessed by semi-quantitative morphometric analysis of the PIMO immunostaining at that time. […]

[2] = tested on: H460 xenograft tumor hypoxia ([18F]-HX4 uptake); experiment: [18F]-HX4 PET/CT imaging of H460 xenograft tumors; type: in vivo, nu/nu mice
Excerpt: as §1, §2, §3

[3] = tested on: 786-O human renal cell carcinoma (RCC) cell line; experiment: 786-O RCC xenograft tumor growth, repeated dosing; type: in vivo; conditions: 786-O model; 50 mg/kg QDx5 for 2 wk, i.p.; P vs vehicle >0.05
Excerpt: (§4) H460 is a high hypoxic fraction tumor model, while the 786-O RCC model is well-vascularized with very low hypoxia. […] When compiling the data from both H460 and 786-O tumors, there was significant correlation between [18F]-HX4 uptake and pimonidazole-positive hypoxic fraction (HF %, R2=0.55, p=0.006).
(§5) The utility of [18F]-HX4 to serve as a predictive biomarker for TH-302 anti-cancer efficacy was shown by the significant correlation observed between the TH-302 anti-cancer efficacy in a model and its hypoxic fraction as measured by [18F]-HX4. […] TGD500 was determined as the increased time (days) for the treated tumor's size on average to reach 500 mm^3 as compared with the vehicle group. TGI was defined as (1−ΔT/ΔC)×100, where ΔT/ΔC is the ratio of the change in mean tumor volume of the treated group (ΔT) and of the control group (ΔC).

[4] = tested on: carbonic anhydrase IX (CA-IX); experiment: ELISA quantification of circulating plasma CA-IX in H460 xenograft animals; type: in vivo, nu/nu mice; conditions: for circulating plasma CA-IX level change: 72 hours, TH-302 150 mg/kg i.p., doxorubicin 4 mg/kg iv
Experimental: as §2
[18F]-HX4 uptake was assessed by PET/CT imaging, and the tumor to muscle ratio (T/M) was determined. […] Blood was collected from the pre- and post-treated animals via retro-orbital venipuncture. […] For tissue biomarker analysis, tumors were harvested 72 hours after TH-302 treatment, and tumor hypoxia was assessed by semi-quantitative morphometric analysis of the PIMO immunostaining at that time.

H460 xenograft tumors = experiment: Tissue biomarkers in H460 tumors (Ki67, γH2AX, H&E); type: in vivo, nu/nu mice; conditions: 72 hours after 150 mg/kg i.p.
Experimental: as §1
[18F]-HX4 uptake was assessed by PET/CT imaging, and the tumor to muscle ratio (T/M) was determined. […] Blood was collected from the pre- and post-treated animals via retro-orbital venipuncture. Plasma CA-IX changed from baseline 165±13 to 104±9.3 pg/ml 72 hours after TH-302 dosing, a 37% reduction (p<0.05; n=10 per group). […] For tissue biomarker analysis, tumors were harvested 72 hours after TH-302 treatment, and tumor hypoxia was assessed by semi-quantitative morphometric analysis of the PIMO immunostaining at that time. The hypoxic fraction (HF) was 13±1.7% in the vehicle group (n=5) and 5.8±0.5% in the TH-302 treatment group (n=6, p<0.05).

[5] = tested on: H460 human non-small cell lung cancer (NSCLC) cell line; experiment: H460 NSCLC xenograft tumor growth, repeated dosing; type: in vivo; conditions: H460 model; 50 mg/kg QDx5 for 2 wk, i.p.; P vs vehicle <0.001
Excerpt: as §4, §5

[6] = tested on: H460 non-small cell lung cancer xenograft; experiment: H460 ectopic xenograft tumor growth and body weight, 150 mg/kg i.p.; type: in vivo, nu/nu mice
Excerpt: as §1
The human H460 non-small cell lung cancer human tumor ectopic xenograft model was employed for this study. The H460 non-small cell lung cancer xenograft model was established by s.c. implantation of 1×10^6 cells in the flank of nu/nu mice. When the tumor size was 100 mm^3, a single dose of TH-302 (150 mg/kg, i.p.) or vehicle was administered.

[7] = 72 hrs after one dose at 150 mg/kg i.p.

Row | Structure (SMILES) | hypoxic fraction (HF %) change, pimonidazole immunostaining ([1]; 72 hours after treatment) | hypoxic fraction (HF), PIMO immunostaining ([1]; tumors harvested 72 hours after 150 mg/kg i.p., vehicle 13±1.7%, n=6, p<0.05) [%] | [18F]-HX4 tumor to muscle ratio (T/M) ([2]; 72 hours after 150 mg/kg i.p., pre-treatment 3.3±0.3, p<0.005) | [18F]-HX4 uptake change (PET-CT) [2, 7] | TGD500 (increased time for treated tumor to reach 500 mm^3 vs vehicle) [3] [days] | TGI [3] [%] | Plasma CA-IX ([4]; 72 hours after dosing 150 mg/kg i.p., baseline 165±13, n=10 per group) [pg/mL] | Plasma CA-IX reduction from baseline ([4]; 72 hours after dosing 150 mg/kg i.p., p<0.05) [%] | circulating plasma CA-IX level change [4] | DNA damage (γH2AX immunostaining) (H460 xenograft tumors) | Proliferating cells (Ki67 immunostaining) (H460 xenograft tumors) | necrosis (hematoxylin and eosin staining) (H460 xenograft tumors) | TGD500 (increased time for treated tumor to reach 500 mm^3 vs vehicle) [5] [days] | TGI [5] [%] | tumor growth in relation to initial [18F]-HX4 uptake ([6]; 150 mg/kg i.p., Q4-5Dx3) | tumor volume change [6, 7] | TGD1000 (tumor growth delay to tumor size of 1000 mm^3) ([6]; single dose 150 mg/kg i.p.) [days] | maximum body weight loss ([6]; single dose 150 mg/kg i.p.) [%] | TGI (tumor growth inhibition) ([6]; single dose 150 mg/kg i.p. at tumor size 100 mm^3) [%]
1 | Cn1c(COP(=O)(NCCBr)NCCBr)cnc1[N+](=O)[O-] [TH-302, (2-bromoethyl)({[(2-bromoethyl)amino][(2-nitro-3-methylimidazol-4-yl)methoxy]phosphoryl})amine] | significantly reduced | 5.8±0.5 | 2.1±0.2 | significantly reduced | 10 | 10 | 104 ± 9.3 | 37 | significantly reduced | significantly increased | decreased; also recorded: significantly reduced | significantly increased | 18 | 89 | tumors with higher initial [18F]-HX4 uptake grew slower | did not change significantly | 10 | 2 | 58
2 | COc1cccc2c1C(=O)c1c(O)c3c(c(O)c1C2=O)C[C@@](O)(C(=O)CO)C[C@@H]3O[C@H]1C[C@H](N)[C@H](O)[C@H](C)O1 [doxorubicin, reference compound] |  |  |  |  |  |  |  |  | did not change circulating CA-IX levels significantly; also recorded: No change |  |  |  |  |  |  |  |  |  | 
